Test results as given in PubChem BioAssay AID179 (DTP/NCI, 2004).
Several values for one entry are separate records, joined by “and”; a condition that tells them apart may be missing. Equal entries are not always repeated. Activity calls are given as the source filed them.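 The calls were made as follows: active = compounds giving half or more protection of infected cells from virus-caused growth loss, again on retest; inactive = the rest.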 Where a SMILES comes first, the peptide text is derived from it. [ ]: non-standard residue; d: D form. The star is where a group is joined. ONb = O=[N+]([O-])c1ccc(CO*)cc1; AllylGly = C=CC[CH](N)C(=O)O; Boc = CC(C)(C)OC(=O)*

Test system: CEM cells HIV-1 protection, formazan growth assay
Experiment: NCI AIDS Antiviral Assay
Conditions: for IC50: measured here: growth of uninfected CEM cells
Method in brief: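 Category rules: moderately active means at least 50% protection on retest, and confirmed active means 100% protection reproducibly. The underlying data came from a formazan growth assay in HIV-1-infected CEM cells.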

| Structure (SMILES) | EC50 [µM] | IC50 | outcome |
| --- | --- | --- | --- |
| Cc1c(Cl)ccc2c1NC(=O)C2(O)CC(=O)c1ccc2ccccc2c1 (stereo unspecified) | > 19.5 | > 19.5 µM | – |
| CN(C)C(=S)/N=c1\sn(C)/c(=N\C(=S)N(C)C)n1C | – | – | inactive |
| Cc1cn(C2CC3C(COC(c4ccccc4)N3O)O2)c(=O)[nH]c1=O (stereo unspecified) | > 200 | 34.7 µM | – |
| CCC/C(Cl)=N/OC(NC(=O)OCC)(C(F)(F)F)C(F)(F)F | > 200 | 10 µM | – |
| CCOC(=O)C(=O)CC1=NC2CCCCC2N(C)C1=O (stereo unspecified) | > 200 | > 200 µM | – |
| CC(=O)C(=[N+]=[N-])C(=O)OC(C)(C)C#N | > 200 | > 200 µM | – |
| O=C1Nc2ccccc2C12CCNC2Cc1ccccc1 (stereo unspecified) | > 794 | 263 µM | – |
| COc1cc2c(cc1OC)-c1cc3ccccc3c(=O)n1CC2 | > 200 | 28.2 µM | – |
| C=CC(C)(C)n1cc(C2=C(O)C(=O)C(c3c(CC=C(C)C)[nH]c4ccccc34)=C(O)C2=O)c2ccccc21 | > 200 | 2.57 µM | – |
| COC(=O)[C@H](Cc1ccccc1)NC(=O)/C(=C/C(C)C)NC(=O)[C@H](CCSC)NC=O | > 550 | > 100 µM | – |
| O=C(CCCC1Cc2ccccc2C1=O)c1ccccc1 (stereo unspecified) | > 200 | 91.2 µM | – |
| C/C=C1\C[C@@H]2C(OC)Nc3cc(O)c(OC)cc3C(=O)N2C1 (stereo partly specified) | > 813 | 0.263 µM | – |
| CCOC(=O)C[N+]1(C)CCC(O)CC1 (stereo unspecified) | > 200 | > 200 µM | – |
| COc1cc(C(c2c(O)c3ccccc3oc2=O)c2c(O)c3ccccc3oc2=O)cc(OC)c1O | > 200 | 15.5 µM | – |
| CCOC(=O)N/N=C(\Cc1ccccc1)OCC | > 200 | > 200 µM | – |
| CCOC(=O)/C(=C\c1ccc(C(F)(F)F)cc1)[Se]c1ccccc1 | > 18.2 | > 18.2 µM | – |
| OC1C2CCC3C2CC(C(O)(c2ccccc2)c2ccccc2)C13 (stereo unspecified) | > 200 | 79.4 µM | – |
| CCOC(=O)C[C@]1(O)[C@@H](CO[Si](C)(C)C(C)(C)C)O[C@@H](n2ccc(=O)[nH]c2=O)[C@@H]1O[Si](C)(C)C(C)(C)C | > 200 | 10.7 µM | – |
| CC12CCC(c3sc(N)c(C#N)c31)C2(C)C (stereo unspecified) | > 191 | 35.5 µM | – |
| COC(=O)C1C(=O)N(C)c2cc(C)c(C)cc2C1(C)C (stereo unspecified) | > 200 | > 200 µM | – |
| C[C@]12CCC(=O)C=C1CC[C@@H]1[C@@H]2[C@@H](O)C[C@@]2(C)[C@H]1CC[C@]2(O)C(=O)COC(=O)CCC(=O)O | > 200 | 6.03 µM | – |
| Cc1ccc(N=Nc2c(C)nn(C(=O)CC(=O)Nc3ccccc3)c2C)cc1C | > 200 | > 200 µM | – |
| CC1NC(=O)c2cc(=O)[nH]c(O)c21 (stereo unspecified) | > 513 | 398 µM | – |

| Structure (SMILES) | EC50 [µM] | IC50 | outcome |
| --- | --- | --- | --- |
| COc1cc(CNC(=S)CCCCCCCCCCC(C)C)ccc1O | – | – | inactive |
| CCC(C)(C)/C(CC(O)(C(F)(F)F)C(F)(F)F)=N\O | > 200 | > 200 µM | – |
| CCCC(=O)C(CC)/C(CCC(=O)N(Cc1ccccc1)Cc1ccccc1)=N/NC(=O)C[N+](C)(C)C (stereo unspecified) | – | – | inactive |
| COC1=C(C)C(=O)C2=C(C1=O)C(CO)N1C(C#N)C3CC4C(C1C2N1CCOC41)N3C (stereo unspecified) | > 1.17 | 0.00575 µM | – |
| CCCc1ccc(OC2OC(CO)C(O)C(O)C2O)cc1 (stereo unspecified) | > 302 | > 302 µM and 85.1 µM | – |
| Cn1c(=O)c2[nH]c(=O)c(C(CO)C(=O)c3ccccc3)nc2n(C)c1=O (stereo unspecified) | > 200 | 9.55 µM | – |
| C=C=C(CCC(=O)c1ccccc1)S(=O)(=O)c1ccccc1 | > 200 | 11 µM | – |
| CC(C)(C)OC(=O)NCC(CNC(=O)OC(C)(C)C)C(N)=O | > 407 | > 407 µM | – |
| Cc1ccc(C)c(NC(=O)c2cc(-c3ccc([N+](=O)[O-])cc3)nc(N)n2)c1 | > 70.8 | > 70.8 µM | – |
| COc1ccc2ccc3c(c2c1)CN1CCc2cc(OC)c(OC)cc2C1C3 (stereo unspecified) | – | – | inactive |
| [N-]=[N+]=Nc1ccccc1Oc1ccccc1 | 58.9 | 89.1 µM | – |
| C=C[C@@]1(C)CCC2(O)C(CCC3C2(C)CCC[C@@]3(C)COC(=O)CC(=O)OC)C1 (stereo partly specified) | > 24.5 | > 24.5 µM | – |
| O=C1CN(c2ccccc2)C(=O)CN1CCN1CC(=O)N(c2ccccc2)CC1=O | > 200 | > 200 µM | – |
| O=C(O)c1ccccc1/C=N/NC1=NCCN1 | > 200 | 85.1 µM | – |
| CCC1C(=O)N(C)c2ccccc21 (stereo unspecified) | > 200 | 117 µM and 33.1 µM | – |
| Cc1cc2ccccc2n1CC(=O)N1CCCC1 | > 200 | > 200 µM | – |
| CCOc1nnnc2nc[nH]c12 | > 200 | 70.8 µM | – |
| C(/C=N/NC1=NCCCCN1)=N\NC1=NCCCCN1 | > 200 | > 200 µM | – |
| CCOP(=O)(OCC)/C(C)=N/O | > 1290 | > 1290 µM | – |
| O=C1OC(c2ccccc2)=N/C1=C\c1cc(Cl)ccc1Cl | > 6.31 | > 6.31 µM | – |
| Cc1cn(C2CC(O)C(CN(O)C(N)=O)O2)c(=O)[nH]c1=O (stereo unspecified) | > 100 | > 100 µM | – |
| c1ccc2c(c1)Cc1c(Cc3csc4ccccc34)ccc3cccc-2c13 | > 7.24 | > 7.24 µM | – |
| COc1ccc(C[N+](C)(C)N)cc1OC | > 200 | > 200 µM | – |

| Structure (SMILES) | EC50 [µM] | IC50 | outcome |
| --- | --- | --- | --- |
| COc1cc2c(cc1OC)[C@H](C)N1CCc3cc(OC)c(OC)cc3[C@@H]1C2 | > 200 | > 200 µM | – |
| c1ccc2nc3c(cc2c1)[nH]c1ccccc13 | > 339 | 204 µM | – |
| C(=N\Nc1ccccn1)/c1ccccn1.C(=N\Nc1ccccn1)/c1ccccn1.[Cl-].[Fe+3] | > 200 | 117 µM | – |
| Cc1ccc(OCCn2cc(Nc3ccccc3)c(=O)[nH]c2=O)cc1 | > 200 | > 200 µM | – |
| C#CCN(Cc1ccc2nc(OC)c(OC)nc2c1)c1cc(OC)c(OC)c(OC)c1 | > 200 | 11.2 µM | – |
| CN1C(=O)C(O)CC1c1cccc(C(F)(F)F)c1 (stereo unspecified) | – | – | inactive |
| CC1=N/C(=C\c2cccs2)C(=O)O1 | > 200 | > 200 µM | – |
| CC(O)CCCOC(c1ccccc1)(c1ccccc1)c1ccccc1 (stereo unspecified) | > 38.9 | > 38.9 µM | – |
| CCCCN1C(=N)C2(C#N)C(CCC)C(CC)C1C2(C#N)C#N (stereo unspecified) | > 200 | 158 µM | – |
| COc1c(C)c(C/C=C(\C)CC/C=C(\C)CC/C=C(\C)CC/C=C(\C)CCC=C(C)C)c(OC)c(OC)c1OC | > 200 | 31.6 µM | – |
| COc1ccc(-c2c(C(C)=O)c(-c3ccccc3)n(C3OC(CO)C(O)C(O)C3O)c(=S)c2C#N)cc1 (stereo unspecified) | > 200 | > 200 µM | – |
| COc1ccc(OC)c(CCc2ccccc2CC(=O)O)c1 | > 832 | 501 µM | – |
| CC1=NC(=Cc2ccccc2O)C(=O)N1n1c(-c2ccccc2)nc2ccccc2c1=O | > 200 | 12.6 µM | – |
| O=C1C=C2CCC[C@H]3OC(=O)C[C@@]23CC1 | – | – | inactive |
| COc1cc(O)c2c(c1)C(=O)C=C(Cl)C2=O | – | – | inactive |
| c1ccc2c(c1)nnn2C1CCCCO1 (stereo unspecified) | > 200 | > 200 µM | – |
| COc1ccc(NC2Oc3cc4c(cc3C(c3cc(OC)c(O)c(OC)c3)C2C)OCO4)cc1 (stereo unspecified) | > 200 | 3.63 µM | – |
| Nc1c(C(=O)OCc2ccccc2)[nH]c(=O)[nH]c1=O | > 200 | > 200 µM | – |
| CCOC(=O)/C=C\n1c(=O)cc(C)c2ccccc21 | > 200 | > 200 µM | – |
| CN1N=Nc2ccccc2C1(O)c1ccc(F)cc1 (stereo unspecified) | > 200 | > 200 µM | – |
| O=c1[nH]c2ccc(Cl)cc2o1 | 182 | > 200 µM | – |
| Cn1c2ccccc2c(=O)c2c(O)cc3c(c21)C=CC1(CCCC1)O3 | 16.2 | > 200 µM | – |
| CC(NCCCCNC(C)C(=O)O)C(=O)O (stereo unspecified) | > 631 | > 631 µM | – |

| Structure (SMILES) | EC50 [µM] | IC50 | outcome |
| --- | --- | --- | --- |
| COc1ccc2c(=O)c(C)c(-c3ccccc3)oc2c1CN(C)C | – | – | inactive |
| CC1C/C(=C\c2ccc(OC(=O)C(C)(C)C)cc2)C(=O)/C(=C/c2ccc(OC(=O)C(C)(C)C)cc2)C1 (stereo unspecified) | > 50.1 | 22.4 µM | – |
| Oc1cc(Br)cc2cccnc12 | – | – | inactive |
| O=C(NNC(=S)Nc1ccc(Br)cc1)c1cc(-c2ccccc2)nc2ccccc12 | > 200 | 9.77 µM | – |
| Cc1ccc([P+](Cc2ccccc2)(c2ccccc2)c2ccc(C)cc2)cc1 | > 200 | 0.741 µM | – |
| O=C1c2ccccc2CC1(Br)C(Br)c1ccccc1 (stereo unspecified) | > 200 | 10.7 µM and 10 µM | – |
| COc1ccc(/C=c2/sc3n(c2=O)NC(c2ccc(Cl)cc2)NN=3)cc1 (stereo unspecified) | – | – | inactive |
| COC(=O)CSSCC(=O)OC | – | – | inactive |
| C/C=C/C=C\C=C/C(O)C(C)C(CCC(C)C1OC(=O)C=CC1C)OP(=O)(O)O (stereo unspecified) | > 2 | 0.129 µM | – |
| O=S(=O)(O)NC1CCCCC1 | > 200 | > 200 µM | – |
| O=C1CCC(c2ccccc2)=NN1c1nc2ccccc2s1 | – | – | inactive |
| C=CCC1CC(n2cc(C)c(=O)[nH]c2=O)OC1CO[Si](C)(C)C(C)(C)C (stereo unspecified) | > 200 | 18.2 µM | – |
| COc1ccc(/C=C2\CCCC(C(NO)c3ccc(OC)cc3)C2=NO)cc1 (stereo unspecified) | > 19.1 | > 19.1 µM | – |
| O=C(O)CCC(=O)NCCOC(=O)CCC(=O)O | > 955 | > 955 µM | – |
| Fc1cccc(C2SCc3nc4ccccc4n32)c1 (stereo unspecified) | > 209 | 20.9 µM | – |
| CCOC(=O)Cn1c(=O)c2nc(SC)sc2n(-c2ccccc2)c1=O | > 200 | > 200 µM | – |
| N[C@H]1c2c(Br)sc(Br)c2C(=O)[C@H]1O | > 200 | 7.59 µM | – |
| C=CCC(NC(=O)OC(C)(C)C)C(=O)NC(CCC(=O)OCc1ccc([N+](=O)[O-])cc1)C(N)=O (stereo unspecified) (Boc-[AllylGly]-Glu(ONb)-NH2; configuration not given here) | > 200 | 102 µM | – |
| CN(C)CC[PH+](c1ccccc1)c1ccccc1.CN(C)CC[PH+](c1ccccc1)c1ccccc1.[Cl-].[Pd+2] | > 200 | > 200 µM | – |
| COc1ccc(C2(c3ccc(OC)cc3)N=NC3(C)CC32)cc1 (stereo unspecified) | > 91.2 | 89.1 µM | – |
| C=CCCCN1C(=O)CCC1=O | – | – | inactive |
| N#CCCN(CCC#N)c1ccc(/C=C2/C=C(c3ccccc3)OC2=O)cc1 | > 14.1 | > 14.1 µM | – |
| CCOC(=O)c1ccc(NC(=O)Nc2cc(C)ccn2)cc1 | > 200 | > 200 µM | – |
